From patent US7968097B2, “Identification of Hla-A2-presented T-cell epitopes derived from the oncofoetal antigen-immature laminin receptor protein and uses thereof” (Immatics Biotechnologies GmbH, priority 2005, dated 2011)
Several values for one entry are separate records, joined by “and”; a condition that tells them apart may be missing. Identical values can stand only once. Entries after “also recorded” stand apart in the source; their conditions may differ.

Assays:
HLA-A*0201 = biological target: T1, HLA-A*0201 (Homo sapiens, UniProt P04439, /I218V/L300P/L318F/N151K/N90K/P208A/P217A/Q86G/Q94H/R138H/R169H/T345S); test: T2 whole cell-binding assay (in vitro reconstitution assay, TAP-deficient T2 cell line); conditions: compared with the Flu nucleoprotein58-66
T1 construct: using the TAP (transporter associated with antigen processing)-deficient T2 cell line; host or cells: T2 (human, TAP-deficient)

[1] = tested on: PBMC of HLA-A*02 positive healthy donors; test: IFN-γ ELISPOT, healthy donors; conditions: healthy donors, HLA-A*02 positive; one value per donor (table line); T cells cultured seven days with IL-2
Method: (§3) To determine the frequency of OFA/iLR peptide-specific T cells in patients, ELISPOT-assays were performed using the Interferon-γ-ELISPOT-Kit (Becton Dickinson, Heidelberg, Germany) according to manufacturer's instructions.
(§4) Prior to analysis, T cells from patients and healthy donors had been kept in culture for seven days in the presence of Interleukin-2 (IL microgram/10^6 PBMC/milliliter).

[2] = tested on: PBMC of HLA-A*02 positive AML patients; test: IFN-γ ELISPOT, AML patients; conditions: for samples with significant (>20) CTL responses against peptide: AML patient samples, IFN-γ ELISPOT; for # of positively stained spots (IFN-γ ELISPOT): AML patients, HLA-A*02 positive, one value per patient (table line), T cells cultured seven days with IL-2
Method: as §3, §4

[3] = tested on: PBMC from healthy donors, CD34-positive progenitor cells, bone marrow cells; test: 51Chromium release assay, peptide-specific CTL on normal cells; type: cell-based, human; conditions: for recognition of bone marrow cells by peptide-specific T cells: A*02-positive donors (BM-01, -02); for recognition of CD34-positive bone-marrow-derived progenitor cells by peptide-specific T cells: A*02-positive donors (CD34-01, -02)
Excerpt: (§1) CTL derived from healthy HLA-A*0201^+ individuals were generated using a protocol described elsewhere (Zeis M, Siegel S, Schmitz M et al. Induction of cytotoxic T lymphocytes against hematologic neoplasms by survivin RNA-transfected dendritic cells. J Immunol. 2003; 170, 5391-5397.). For the induction of autologous OFA/ILR, peptide-specific CTL obtained from patients with AML and CLL, CD8^+ T cells were separated from PBMC using immunomagnetic beads (MACS®, Miltenyi, Bergisch-Gladbach, Germany), cultured with autologous OFA/iLR peptide-pulsed fully matured DC and restimulated with autologous peptide-pulsed PBMC in the presence of IL-2 (1 ng/ml, CellConcepts, Weisskirch, Germany). After at least four weekly restimulations, CTL reactivity was determined in a conventional 4 h ^51Chromium release assay. Cold target inhibition assays and antibody blocking experiments were performed as previously described (Zeis M, Siegel S, Schmitz M et al. Induction of cytotoxic T lymphocytes against hematologic neoplasms by survivin RNA-transfected dendritic cells. J Immunol. 2003; 170, 5391-5397.).
(§2) T cells recognizing the ILR1-peptide were tested on K562 [human pro-erythroblastic leukemia cell-line, also known as chronic myelogenous leukemia (CML) cell line, which, due to extremely low levels of HLA, functions as a control for excluding NK cells as effector cells], IND (human B lymphoblastoid cell line), Karpas-422 (human B cell lymphoma), Balm-3 (human non-Burkitt B-lymphoma cell line), U266 (human multiple myeloma), REH (Human B cell precursor leukemia), MEC-1 (human chronic B cell leukemia). The same T cells were used to test autologous and allogeneic PBMC from healthy donors as controls. […] The response is not directed against allogeneic major or minor histocompatibility complex antigens. • 3. ILR1 peptide is recognized in an HLA-restricted fashion. • 4. The restriction is allele-specific (specific for A*02). Target: AML

[4] = tested on: T cells of CLL patients (Binet A); test: IL-10-secreting peptide-specific T cells in CLL patients with early disease; type: cell-based, human; conditions: small series of CLL patients with early disease (Binet A); data not shown
Excerpt: The inventors are currently involved with experiments to elucidate more precisely a possible relationship between the occurrence of anti-OFA/iLRP-specific T cells secreting IFN-γ or IL10 and the stage of disease in patients with CLL and multiple myeloma.

[5] = tested on: tumor cells from CLL patients; test: 51Chromium release assay, peptide-specific CTL on tumor cells from CLL patients; type: cell-based, human; conditions: for A*02-positive CLL patients in whom the peptide is a tumor-associated antigen: summary of two experiments; for recognition of CLL cells from A*02-negative patients by peptide-specific T cells / recognition of CLL cells from A*02-positive patients by peptide-specific T cells: two experiments
Excerpt: as §1
T cells specific for HLA-A*02-restricted ILR1 were tested on tumor cells from CLL patients (5 patients; samples CLL-01, -02, -03, -05, -06). […] The experiment was repeated (FIG. 3A) with 8 more CLL patients, of whom 4/8 were A*02-positive. […] In summary: • 1. ILR1 is a tumor-associated antigen in 100% (7/7) of A*02-positive CLL patients tested. • 2. ILR1 is restricted by HLA-A*02. Target: T2
T cells specific for HLA-A*02-restricted ILR2 were tested on tumor cells from CLL patients (8 patients; samples CLL-01, -02, -03, -04, -05, -06, -07, -08). […] The experiment was repeated (FIG. 9B) with 5 more CLL patients, of whom 3/5 were A*02-positive. […] Conclusion-and-summary: • 1. ILR2 is a tumor associated antigen in 100% (7/7) of A*02-positive CLL patients tested. • 2. ILR2 is restricted by HLA-A*02. Target: T2

[6] = tested on: hematological tumor cell lines (K562, IM9, Karpas-422, Balm-3, U266, REH, Ramos, MEC-1); test: 51Chromium release assay, peptide-specific CTL on tumor cell lines; type: cell-based, human; conditions: for cytolytic activity of peptide-specific CTL lines: HLA-A*0201+ hematological tumor lines, primary malignant AML blasts and CLL cells; for recognition of cell lines by peptide-specific T cells: K562, IND/IM9, Karpas-422, Balm-3, U266, REH, MEC-1, Ramos also for ILR2
Excerpt: as §1, §2
T cells recognizing the ILR2-peptide (FIG. 6) were tested on K562 [human proerythroblastic leukemia cell-line, also known as chronic myelogenous leukemia (CML) cell line, which, due to extremely low levels of HLA, functions as a control for excluding NK cells as effector cells], IM9 (human B lymphoblastoid cell line), Karpas-422 (human B cell lymphoma), Balm-3 (human non-Burkitt B-lymphoma cell line), U266 (human multiple myeloma), REH (Human B cell precursor leukemia), Ramos (synonym: RA 1; a human Burkittt's lymphoma B lymphoblast), MEC-1 (human chronic B cell leukemia). The same T cells were used to test autologous and allogeneic PBMC from healthy donors as controls.

LLAARAIVAI (listed as Homo sapiens) [ILR1]
binding affinity to HLA-A*0201 (HLA-A*0201): strong binding affinity | # of positively stained spots (IFN-γ ELISPOT) [1]: 0 per 105 PBMC (5×) and 3 per 105 PBMC (2×) and 2 per 105 PBMC and 4 per 105 PBMC (3×) and 5 per 105 PBMC (2×) and 6 per 105 PBMC and 7 per 105 PBMC | samples with significant (>20) CTL responses against peptide [2]: 40% | # of positively stained spots (IFN-γ ELISPOT) [2]: 2 per 105 PBMC (3×) and 3 per 105 PBMC (2×) and 1 per 105 PBMC (2×) and 4 per 105 PBMC and 5 per 105 PBMC and 56 per 105 PBMC and 54 per 105 PBMC and 34 per 105 PBMC (2×) and 33 per 105 PBMC and 25 per 105 PBMC | lysis of HLA-A2-negative targets and normal hematopoietic cells by peptide-specific CTL lines [3]: spared | recognition of allogeneic and autologous PBMC from healthy donors by peptide-specific T cells [3]: not recognized | recognition of bone marrow cells by peptide-specific T cells [3]: not recognized | recognition of CD34-positive bone-marrow-derived progenitor cells by peptide-specific T cells [3]: not recognized | IL-10-secreting T cells specific for the peptide [4]: no relevant IL-10-secreting T cells | A*02-positive CLL patients in whom the peptide is a tumor-associated antigen [5]: 100% | recognition of CLL cells from A*02-negative patients by peptide-specific T cells [5]: recognized in any case (0/2) and 0/4 A*02-negative target cells were recognized | recognition of CLL cells from A*02-positive patients by peptide-specific T cells [5]: recognized-in-all cases (3/3); also recorded: CLL cells from 4/4 A*02-positive patients were recognized | cytolytic activity of peptide-specific CTL lines [6]: strong cytolytic activity | recognition of cell lines by peptide-specific T cells [6]: All cell lines except MEC-1, which does not express the HLA-A*02 allele, and K562, which is deficient for HLA class I gene expression in general, were recognized

ALCNTDSPL (listed as Homo sapiens) [ILR2]
binding affinity to HLA-A*0201 (HLA-A*0201): strong binding affinity | # of positively stained spots (IFN-γ ELISPOT) [1]: 0 per 105 PBMC (5×) and 3 per 105 PBMC (2×) and 2 per 105 PBMC and 4 per 105 PBMC (3×) and 5 per 105 PBMC (2×) and 6 per 105 PBMC and 7 per 105 PBMC | samples with significant (>20) CTL responses against peptide [2]: 47% | # of positively stained spots (IFN-γ ELISPOT) [2]: 0 per 105 PBMC (4×) and 1 per 105 PBMC (2×) and 3 per 105 PBMC (2×) and 34 per 105 PBMC (3×) and 27 per 105 PBMC and 23 per 105 PBMC and 112 per 105 PBMC and 32 per 105 PBMC | lysis of HLA-A2-negative targets and normal hematopoietic cells by peptide-specific CTL lines [3]: spared | recognition of allogeneic and autologous PBMC from healthy donors by peptide-specific T cells [3]: not recognized | recognition of bone marrow cells by peptide-specific T cells [3]: not recognized | recognition of CD34-positive bone-marrow-derived progenitor cells by peptide-specific T cells [3]: not recognized | IL-10-secreting T cells specific for the peptide [4]: no relevant IL-10-secreting T cells | A*02-positive CLL patients in whom the peptide is a tumor-associated antigen [5]: 100% | recognition of CLL cells from A*02-negative patients by peptide-specific T cells [5]: not recognized in any case (0/4) and 0/2 A*02-negative target cells were recognized | recognition of CLL cells from A*02-positive patients by peptide-specific T cells [5]: recognized in all cases (4/4); also recorded: CLL cells from 3/3 A*02-positive patients were recognized | cytolytic activity of peptide-specific CTL lines [6]: strong cytolytic activity | recognition of cell lines by peptide-specific T cells [6]: All cell lines except Ramos and MEC-1, which do not express the HLA-A*02 allele, and K562, which is deficient for HLA class I gene expression in general, were recognized
